Test results from US20140178461A1, “COMPOUNDS AND COMPOSITIONS FOR USE IN THE TREATMENT AND PREVENTION OF LUNG AND BRAIN CANCER AND PRECANCEROUS CONDITIONS THEREOF” (priority 2012, published 2014).
pIC50: −log10 of the molar value. Where two headings read alike, the source gives them in different places.

Tests used:
[1] = test system: heart tissue; test: Cardiotoxicity, histology of heart tissue sections from treated mice; conditions: mice treated for about 1.5 months
[2] = Pharmacokinetics study of PTI 93 in mice (plasma levels); conditions: single i.p. dose of 100 mg/kg PTI 93, mice
[3] = test system: A549 human non-small cell lung cancer cells; test: Subcutaneous A549 xenograft in NOD SCID mice (efficacy of PTI 93); type: in vivo, mouse; conditions: end of study, factoring in the 0 time value
Procedure: A549 human non-small cell lung cancer cells (1.5×10^5) were injected subcutaneously in the left and right flanks of 5-6-week-old female NOD SCID mice (Taconic Farms, Germantown, N.Y.). When the average tumor volume reached 100 mm^3, mice were treated by oral gavage of 10 or 15 mg/kg/day PTI 93 or vehicle (corn oil) for 2 weeks, when they were sacrificed and the tumors were harvested.

[4] = test system: Salmonella Typhimurium (TA98 and TA100); test: Genotoxicity, reverse mutations in Salmonella with and without rat liver S9; conditions: strains TA98 and TA100, presence and absence of rat liver S9
[5] = test system: U87 glioblastoma cells; test: Apoptosis, Annexin V-FITC/PI staining by FACS; type: cell-based, human
[6] = parameters: AUC in plasma: unit not given beside the values; conditions: mouse, in vivo, inhaled or intranasal
[7] = test system: U87 cells; test: Inhibition of glioblastoma cell line U87, 24-h growth inhibitory concentration; type: cell-based, human; conditions: 24-hour growth inhibition
[8] = in vivo; conditions: mouse, ip, 58 mg/kg
[9] = test system: A549 human non-small lung cancer cells; test: Orthotopic A549-GFP lung tumor model in Ncr nude mice (efficacy of phospho-ibuprofen amide 1); type: in vivo; conditions: 200 mg/kg once a week for 8 weeks; compound 1 liposomal; versus control
[10] = Biodistribution of liposomal phospho-ibuprofen amide 1 in mice after i.v. administration; type: in vivo; conditions: single 200 mg/kg i.v. dose, 1 h

Question: Which results are given for `CCOP(=O)(OCC)OCCc1ccc(OC(=O)Cc2c(C)n(C(=O)c3ccc(Cl)cc3)c3ccc(OC)cc23)cc1` [PTI 93, [1-(4-Chloro-benzoyl)-5-methoxy-2-methyl-1H-indol-3-yl]-acetic acid 4-[2-(diethoxy-phosphoryloxy)-ethyl]-phenyl ester]?
Answer: cardiotoxicity (histology, treated versus healthy control mice) [1]: no differences; time of maximum plasma concentration of intact PTI [2]: 2 h; plasma level of intact PTI 4 hours post administration ([2]; 4 hours): undetectable; reduction of tumor volume ([3]; 10 mg/kg/day oral gavage for 2 weeks): 85%; reduction of tumor volume ([3]; 15 mg/kg/day oral gavage for 2 weeks): 96%; genotoxicity (reverse mutations) [4]: no genotoxicity

Question: Which “fold-increase of annexinV (+) cells” value [5] does the source give for `CCCC(CCC)C(=O)Oc1ccc(COP(=O)(OCC)OCC)cc1` [PV 116, Phosphovalproic Acid] here?
Answer: The value was 3.0 fold.

Question: What does the source list for `CSc1ccc(/C=C2/C(C)=C(CC(=O)O)c3cc(F)ccc32)cc1` [Sulindac sulfide 131, sulindac sulfide]?
Answer: AUC in plasma ([6]; BALB/c nude): 66.9; AUC in lung [6]: 18.9 nmol·h/g

Question: Which results are given for `CC1=C(CC(=O)O)c2cc(F)ccc2/C1=C\c1ccc(S(C)(=O)=O)cc1` [Sulindac sulfone 132, sulindac sulfone]?
Answer: AUC in plasma ([6]; BALB/c nude): 142.4; Cmax ([6]; BALB/c nude): 10.4 µM; Tmax in lung ([6]; BALB/c nude): 8 h; Tmax in plasma ([6]; BALB/c nude): 8 h; AUC in lung [6]: 57.5 nmol·h/g; Cmax in lung [6]: 4.6 nmol/g

Question: With `CC1=C(CC(=O)O)c2cc(F)ccc2/C1=C\c1ccc([S+](C)[O-])cc1` (stereo not shown) [Sulindac, sulindac] as the compound, how does the pIC50 [7] read?
Answer: The pIC50 was no more than 3.00.

Question: What about the AUC in lung [6] of the same compound?
Answer: Its AUC in lung is 30.1 nmol·h/g.

Question: And the AUC in plasma [6]?
Answer: Its AUC in plasma is 49.5.

Question: What about the Tmax in lung [6] of the same compound?
Answer: The Tmax in lung was 0 h.

Question: What about the Tmax in plasma [6] of the same compound?
Answer: The Tmax in plasma was 0 h.

Question: Which results are given for `COc1ccc2c(c1)c(CC(=O)O)c(C)n2C(=O)c1ccc(Cl)cc1` [indomethacin 127, indomethacin]?
Answer: AUC(0-t) [8]: 500 µM·h; Cmax [8]: 127 µM

Question: What does the source list for `CCOP(=O)(OCC)OCCCCNC(=O)C(C)c1ccc(CC(C)C)cc1` (stereo not shown) [phospho-ibuprofen amide 1, Phosphoric acid diethyl ester 4-[2-(4-isobutyl-phenyl)-propionylamino]-butyl ester]?
Answer: reduction based on lung tumor weight (lung weight) [9]: 80%; reduction of lung cancer based on fluorescence [9]: 95%; biodistribution (drug concentration in blood and major organs) [10]: preferentially accumulated in lungs
